SMILES strings stand for the structures.

Common to all, as to format: binding
The target in assay [1] is T1, human serum albumin (HSA) (Homo sapiens, UniProt P02768).
T1 construct: gene ALB; fatty acid-free human serum albumin
As to the kind of experiment: spectrofluorimetric titration (ex […] nm, em […] nm), pH […] °C.

For assay [2], the target named is T1, human serum albumin (HSA). Described as above. The source holds these as a separate data set.
The target of assay [3] is T1, human serum albumin (HSA). Description: spectrophotometric titration ([…]-460 nm), pH […] °C.
In assay [4] the target is T1, human serum albumin (HSA). Description: competitive displacement of heme-Fe(III) (spectrophotometry) and dansyl-arginine (fluorescence), pH […] °C.

T1 sequence (P02768 25-609): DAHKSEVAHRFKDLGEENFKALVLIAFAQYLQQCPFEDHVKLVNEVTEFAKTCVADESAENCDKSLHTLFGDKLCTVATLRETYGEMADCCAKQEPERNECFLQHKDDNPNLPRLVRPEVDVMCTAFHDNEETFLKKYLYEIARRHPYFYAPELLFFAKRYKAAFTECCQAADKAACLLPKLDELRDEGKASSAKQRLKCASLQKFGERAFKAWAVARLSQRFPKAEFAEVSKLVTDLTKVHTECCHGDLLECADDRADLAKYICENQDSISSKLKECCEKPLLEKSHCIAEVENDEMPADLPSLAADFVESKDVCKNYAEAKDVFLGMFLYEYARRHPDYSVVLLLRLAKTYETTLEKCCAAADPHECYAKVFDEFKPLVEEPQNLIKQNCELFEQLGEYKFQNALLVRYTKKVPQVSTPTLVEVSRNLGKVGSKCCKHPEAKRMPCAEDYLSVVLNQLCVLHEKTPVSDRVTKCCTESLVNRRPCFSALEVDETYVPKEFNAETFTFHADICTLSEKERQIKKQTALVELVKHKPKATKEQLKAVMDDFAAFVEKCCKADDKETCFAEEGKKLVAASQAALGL

As a reminder, the Kd is the free concentration of one partner at which half of the binding sites on the other are occupied at equilibrium, for simple one-to-one binding. In assay [1], `CN(C)c1cccc2c(S(=O)(=O)N[C@@H](CCCNC(=N)N)C(=O)O)cccc12` [dansyl-arginine] registered a Kd of 27 ± 3 µM.

Turning to `CN(C)c1cccc2c(S(=O)(=O)N(C)CC(=O)O)cccc12` [dansyl-sarcosine], the dissociation constant (Kd) in assay [2] turned out to be 5.1 ± 0.5 µM.

The molecule `C=CC1=C(C)C2=Cc3c(C=C)c(C)c4[n]3[Fe+][n]3c(c(C)c(CCC(=O)O)c3=CC3=NC(=C4)C(C)=C3CCC(=O)O)=CC1=N2` [heme-Fe(III)] registered a Kd in assay [3] of 0.076 ± 0.008 µM.

`N#CC[C@H](C1CCCC1)n1cc(-c2ncnc3[nH]ccc23)cn1` [ruxolitinib] displayed a Kd in assay [4] of 3.1 ± 0.4 µM.
